The source of these data is patent US20210024981A1, “COMPOSITION FOR DETECTING DSRNAS, COMPRISING MEROCYANINE COMPOUND AND ISOMER THEREOF, AND METHOD FOR PROVIDING INFORMATION FOR DIAGNOSING CANCER, BY USING DSRNA EXPRESSION ANALYSIS” (KOREA ADVANCED INSTITUTE OF SCIENCE AND TECHNOLOGY, priority 2018, published 2021).

The test system of data set [1] is HeLa cervical cancer cells. The data set can be described thus: dsRNA absorbance change rate after 5-AZA-CdR treatment. Format: cell-based. To be noted: 5-AZA-CdR 500 nM 24 hours, day 5 vs day 0. Here is the method: (§1) To compare the expression level of dsRNA between cancer cells and normal cells, total RNA was extracted by treating TRIsure reagents (Bioline) to 3 types of cancer cell lines (HeLa cervical cancer cells, HCT116 colorectal cancer cells and A549 lung cancer cells) and 2 types of normal cell lines (CCD-986sk cells and RPE-1 cells), respectively. The extracted total RNA (30 μg) was treated with RNase T1 (Worthington Inc.) in a volume of 1/10, and incubated at 37° C. for 30 minutes to remove ssRNA and rRNA. Then, dsRNA was purified using a phenol extraction method. The final concentration of the purified dsRNA was adjusted to 350 μM using tertiary distilled water, to which the spiropyran solution (12 μM, dissolved in tertiary distilled water) was added. After irradiating UV to the mixture, the rate of change in absorbance at 512 nm was measured for 2 minutes. The rate of change in absorbance was calculated in comparison with the control group using tertiary distilled water instead of dsRNA.
(§2) HCT116 colorectal cancer cells and HeLa cervical cancer cells were treated with 5-AZA-CdR (500 nM), respectively, and cultured for 24 hours. The medium was replaced with fresh medium and the cells were collected on days 0, 1, 3 and 5 to isolate dsRNA. The rate of change in absorbance of dsRNA in cancer cells was measured in the same manner as described in Experimental Example 9.

Data set [2] deals with HCT116 colorectal cancer cells. The data set is described as above. The data set is classed as cell-based. To be noted: 5-AZA-CdR 500 nM 24 hours, days 0, 1, 3 and 5. Here is the method: as §1, §2
Data set [3] deals with HCT116 colorectal cancer cells. As to the kind of experiment: Apoptosis observed under a microscope. The data set is classed as cell-based. To be noted: 5-AZA-CdR 500 nM, day 5.
Data set [4] concerns MCF-7 breast cancer cells. The data set can be described thus: Degree of apoptosis by MTT assay. The settings on record: 5-AZA-CdR 500 nM. Format: cell-based. Here is the method: (§3) HCT116 colorectal cancer cells, PANC-1 pancreatic cancer cells, MCF-7 breast cancer cells, A549 lung cancer cells and A375 melanoma cells were treated with 5-AZA-CdR in the same manner as described in Experimental Example <10-1>, and the degree of apoptosis was measured by MTT assay.
In general terms: Tetrazolium assays rely on reduction of a dye to a coloured formazan, in cell work by metabolically active cells.

Data set [5] concerns A549 lung cancer cells. The data set can be described thus: Degree of apoptosis by MTT assay. Format: cell-based. The settings on record: 5-AZA-CdR 500 nM. Here is the method: as §3
Data set [6] deals with A375 melanoma cells. As to the kind of experiment: Degree of apoptosis by MTT assay. To be noted: 5-AZA-CdR 500 nM. Format: cell-based. Here is the method:
as §3

For data set [7], the system named is PANC-1 pancreatic cancer cells. As to the kind of experiment: Degree of apoptosis by MTT assay. Format: cell-based. To be noted: 5-AZA-CdR 500 nM. Here is the method:
as §3

Data set [8] deals with HCT116 colorectal cancer cells. The data set can be described thus: Degree of apoptosis by MTT assay. To be noted: 5-AZA-CdR 500 nM. Format: cell-based. Here is the method: as §3
Data set [9] has as its system MCF-7 breast cancer cells. As to the kind of experiment: dsRNA absorbance change rate after 5-AZA-CdR treatment. The data set is classed as cell-based. The settings on record: 5-AZA-CdR 500 nM, day 7 compared to day 0. Here is the method: as §1
(§4) In addition, PANC-1 pancreatic cancer cells, MCF-7 breast cancer cells, A549 lung cancer cells and A375 melanoma cells were treated with 5-AZA-CdR (500 nM), respectively, and cultured for 24 hours. The medium was replaced with fresh medium and the cells were collected on days 0, 1, 3, 5 and 7 to isolate dsRNA. The rate of change in absorbance of dsRNA in cancer cells was measured in the same manner as described in Example 1.

Data set [10] concerns A549 lung cancer cells. The description is as above. Format: cell-based. The settings on record: 5-AZA-CdR 500 nM, days 0-7. Here is the method:
as §1, §4

Data set [11] deals with A375 melanoma cells. The data set is described as above. The settings on record: 5-AZA-CdR 500 nM, days 0-7. Format: cell-based. Here is the method: as §1, §4
The subject of data set [12] is PANC-1 pancreatic cancer cells. Described as above. The settings on record: 5-AZA-CdR 500 nM, day 7 compared to day 0. The data set is classed as cell-based. Here is the method: as §1, §4
Data set [13] deals with ERV (THE1B, MTL2B4, MLT1C49 and MER21C) in HCT116 colorectal cancer cells. The data set can be described thus: RT-PCR (qPCR) to confirm ERV expression. To be noted: 5-AZA-CdR 500 nM. The data set is classed as cell-based. Here is the method:
According to a recent study, 5-AZA-CdR has been reported to promote apoptosis by increasing untranslated RNA called ERV (endogenous retroviral element), the dsRNA. Thus, whether the expression of ERV ([…], MTL2B4, MLT1C49 and MER21C genes) was increased by 5-AZA-CdR treatment was investigated.
Total RNA was isolated from the HCT116 colorectal cancer cells treated with 5-AZA-CdR in the same manner as described in Experimental Example <10-1>, to which DNase I was treated, and then cDNA was synthesized using RevertAid reverse transcriptase (Thermo Fisher Scientific). Using the synthesized cDNA as a template, qPCR was performed with the primers in Table 1 below.
Background: Quantitative PCR measures a nucleic acid by following its amplification.

The subject of data set [14] is HeLa cervical cancer cells. As to the kind of experiment: Apoptosis observed under a microscope. The data set is classed as cell-based. The settings on record: 5-AZA-CdR 500 nM, day 5.
The test system of the next data set is poly AU and poly GC. The data set can be described thus: Effect of dsRNA on reversibility of SP and MC. Format: physicochemical. To be noted: 200 μM poly AU or poly GC in sodium ion buffer; UV and 420 nm light alternately, 5 cycles at 1 minute intervals. Here is the method: The SP and MC in the isomer relationship can be converted reversibly to each other by irradiating UV or visible light. To confirm the effect of dsRNA on the reversibility of SP-MC, SP and 200 μM poly AU and poly GC were added to sodium ion buffer, respectively, and absorbance was measured by alternately irradiating the mixture with UV and 420 nm […] light in 5 cycles at 1 minute intervals. At this time, water was used instead of RNA as the control.

Data set [15] relates to dsRNA (20 bp poly GC and poly AU). As to the kind of experiment: Binding of spiropyran (SP) or merocyanine (MC) and dsRNA, UV-Vis spectrometer. To be noted: 12 μM solution, 20 bp poly GC and poly AU added, MC after 254 nm UV for 5 minutes. Here is the method: The interaction of spiropyran (SP) or merocyanine (MC) with dsRNA was confirmed using a UV-Vis spectrometer. The spiropyran produced in Example 1 was prepared as a spiropyran solution (12 μM), and dsRNA was prepared by ordering 20 bp poly GC and poly AU from Bioneer Co., Ltd., respectively. After adding 200 μM of poly GC and poly AU to the spiropyran solution, spectral results were obtained using a UV-Vis spectrometer. The spiropyran produced in Example 1 was prepared as a spiropyran solution (12 μM), and dsRNA was prepared by ordering 20 bp poly GC and poly AU from Bioneer Co., Ltd., respectively. After irradiating 254 nm UV to the spiropyran solution for 5 minutes, poly GC and poly AU were added, respectively. Then, spectral results were obtained using a UV-Vis spectrometer.

Entries after “also recorded” stand apart in the source; their conditions may differ.

With `Nc1ncn([C@H]2C[C@H](O)[C@@H](CO)O2)c(=O)n1` [Example 5-AZA-CdR, 5-aza-2′-deoxycytidine], the “rate of change in absorbance at 512 nm (dsRNA expression)” value in [1] was “almost unchanged; also recorded: almost similar to that of day 0”; in data set [2] it was “increased from day 3; also recorded: gradually increased with time”. For the same compound, the apoptosis entry in [3] was “apoptosis induced by 5-AZA-CdR was observed”; in data set [14] it was “apoptosis was not observed”. Also, the “growth decreased compared to untreated control” value in data set [4] is listed as “about 20%”; in the data set with A549 lung cancer cells [5], “about 10%”; in data set [7] it was “about 20%”. In addition, the “growth compared to untreated control” value with A375 melanoma cells [6] is “not reduced”. Moreover, the “growth reduced compared to untreated control” value in [8] is “about 40%”. The “dsRNA expression (rate of change in absorbance)” value is on record as “slightly increased; also recorded: slight increase” in data set [9], “no change; also recorded: little change” in the data set on A549 lung cancer cells [10], “no change; also recorded: little change” in the data set with A375 melanoma cells [11] and “slightly increased; also recorded: slight increase” in data set [12]. For the same compound, the “expression level of MER21C, increase compared to day 0” value in data set [13] (day 5) stood at 100 times. Also, the “expression levels of THE1B, MTL2B4, MLT1C49 and MER21C” value in data set [13] (days 0 and 1) is “almost unchanged”; in data set [13] (from day 3) it was “increased; also recorded: began to increase from day 3”.

For the compound `CC1(C)c2ccccc2N(CCC[N+](C)(C)C)C12C=Cc1cc([N+](=O)[O-])ccc1O2` (stereo not shown) [SP, 1′-(3″-trimethylammoniopropyl)-3′,3′-dimethyl-6-nitrospiro[(2H)-1-benzopyran-2,2′-indoline]iodide], the “reversibility of SP-MC” value with poly AU and poly GC is given as “maintained independently from the presence or absence of dsRNA”. Also, the “binding to dsRNA (change in UV-Vis absorbance spectrum)” value is recorded as “did not bind to dsRNA” in [15] and “not combined with dsRNA” in data set [15] (listed as spiropyran).
